Experiments:
RhoA = RhoA (Homo sapiens, UniProt P61586); assay: surface plasmon resonance; assay type: binding
RhoA (HEK 293F cells) = RhoA (HEK 293F cells) (Homo sapiens, UniProt P61586); assay: fluorescent RhoA-GTP probe, F488/F405 ratio, HEK […] cells; assay type: cell-based
Chain of RhoA (HEK 293F cells) (P61586 1-190): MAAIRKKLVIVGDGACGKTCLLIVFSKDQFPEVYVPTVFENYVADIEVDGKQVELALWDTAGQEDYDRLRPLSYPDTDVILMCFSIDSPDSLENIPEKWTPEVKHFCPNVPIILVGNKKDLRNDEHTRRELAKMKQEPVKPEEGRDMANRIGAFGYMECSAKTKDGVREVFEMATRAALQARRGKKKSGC

Chain of RhoA (P61586 1-190): as above

For `CCc1cccc([C@@H](O)CO)c1` [AH001], the Kd (RhoA) was 73.2 nM and the IC50 (RhoA (HEK 293F cells)) was 25.7 ± 1.18 nM.

From doi:10.1101/2025.06.03.657556v1 (biorxiv, 2025)
